Laboratory results from US20040173696A1, “Milling microgram quantities of nanoparticulate candidate compounds” (Elan Pharma International Ltd., priority 2002, published 2004).
Read-outs that look alike come from different tables or passages of the source.

Legend:
[1] = 48-well, 0.5 g 0.8 mm media, 0.125 ml slurry, HPC-SL 4:1, 48 hours
Description: (§1) Naproxen and hydroxypropyllcellulose (HPC-SL) as a surface stabilizer were combined at a drug:stabilizer ratio of 4:1. Samples of the composition and grinding media, as shown in the table below, were added to the wells of a 48-well microplate. One well was used for each condition. The microplate was then agitated at the maximum sustainable speed using an orbital shaking platform driven by a standard laboratory magnetic stirring device. After 48 hours, the average particle size of naproxen was estimated by light microscopy.

[2] = 24-well, 48 hours
Description: In this example 0.8 mm media was used.
as §1, with “24-well microplate” for “48-well microplate.”, “hours” for “hours,”

Average Particle Size ([1]; 0.125 mg drug): <1 μm
Average Particle Size ([1]; 0.625 mg drug): <1 μm
Average Particle Size ([1]; 1.25 mg drug): <0.5 μm
Average Particle Size ([1]; 2.5 mg drug): <0.5 μm
Average Particle Size of Naproxen ([2]; 0.25 mg drug, 1 g 0.8 mm media, 0.25 ml slurry, HPC-SL 4:1): <1 μm,
Average Particle Size of Naproxen ([2]; 0.5 mg drug, 2 g 0.8 mm media, 0.5 ml slurry, HPC-SL 4:1): <1 μm,
Average Particle Size of Naproxen ([2]; 1.25 mg drug, 1 g 0.8 mm media, 0.25 ml slurry, HPC-SL 4:1): <1 μm,
Average Particle Size of Naproxen ([2]; 2.5 mg drug, 1 g 0.8 mm media, 0.25 ml slurry, HPC-SL 4:1): <0.5 μm
Average Particle Size of Naproxen ([2]; 5 mg drug, 1 g 0.8 mm media, 0.25 ml slurry, HPC-SL 4:1): <0.5 μm
Average Particle Size of Naproxen ([2]; 10 mg drug, 2 g 0.8 mm media, 0.5 ml slurry, HPC-SL drug:stabilizer 4:1): <0.5 μm
SMILES: COc1ccc2cc([C@H](C)C(=O)O)ccc2c1 [Naproxen]
